The target in experiment [1] is T1, Glutamate NMDA receptor (Rattus norvegicus) (UniProt P35439+Q00959+Q00960+Q00961+Q62645+Q8VHN2+Q9R1M7).
Experiment [2] addresses T1, Glutamate NMDA receptor (Rattus norvegicus). The experiment in a line: Agonistic activity against N-methyl-D-aspartate glutamate receptor was determined in rat cortical slice preparation at concentration up to 5 mM; Not active. The format is functional.
Experiment [3] has the same target. Put plainly: Antagonistic activity against N-methyl-D-aspartate glutamate receptor antagonist was determined in rat cortical slice preparation at concentration up to 5 mM; not active. It is filed as functional.
For experiment [4] the target is unchanged. The experiment in a line: Effective dose required for agonistic activity against N-methyl-D-aspartate glutamate receptor was determined in rat cortical slice preparation. It is filed as functional.
Experiment [5] shares this target. Put plainly: Antagonistic activity against N-methyl-D-aspartate glutamate receptor antagonist was determined in rat cortical slice preparation at concentration up to 1 mM; not active. The format is functional.
Experiment [6] has the same target. The experiment in a line: Antagonistic activity against N-methyl-D-aspartate glutamate receptor antagonist was determined in rat cortical slice preparation at concentration up to 100 mM; not active. The format is functional.
Experiment [7] has the same target. Put plainly: Antagonistic activity against N-methyl-D-aspartate glutamate receptor antagonist was determined in rat cortical slice preparation at concentration up to 100 mM; Active. It is filed as functional.

We go through eight compounds from ChEMBL document CHEMBL1125143, “Relationship between structure, conformational flexibility, and biological activity of agonists and antagonists at the N-methyl-D-aspartic acid subtype of excitatory amino acid receptors” (J Med Chem, 1990).

Calls of active or inactive are those of the source. No cut-off for these calls is given here.

As to `CN[C@H](CC(=O)O)C(=O)O`, in experiment [1], the ED50 was 15 µM.

Consider `O=C(O)[C@@H]1CCC[C@H](C(=O)O)N1`, for which the ED50 result in experiment [2] was “inactive”. Moreover, in experiment [3], the NA result is “inactive”.

In experiment [4], `O=C(O)[C@@H]1CCCN[C@H]1C(=O)O` (relative stereo) showed an ED50 of 35 µM.

Take `O=C(O)[C@@H]1CCN[C@@H](C(=O)O)C1` (relative stereo): the ED50 in experiment [4] stood at 60 µM.

Consider `O=C(O)[C@@H]1CC[C@H](C(=O)O)NC1` (relative stereo), for which the NA result in experiment [5] is “inactive”.

In experiment [4], `O=C(O)[C@H]1CCCN[C@H]1C(=O)O` (relative stereo) returned an ED50 of 15 µM. Besides, the NA result in experiment [6] was “inactive”.

In the case of `O=C(O)[C@H]1CCN[C@@H](C(=O)O)C1` (relative stereo), the ED50 entry in experiment [2] was “inactive”. In experiment [7], the A result was “Active”.

For the compound `O=C(O)[C@H]1CC[C@H](C(=O)O)NC1` (relative stereo), the ED50 entry in experiment [2] was “inactive”. Further, in experiment [3], the NA result is “inactive”.
